Source: patent US12558435B2, “Transient inhibition of p53 in gene therapy” (Ospedale San Raffaele S.R.L., priority 2018, dated 2026)

Assays:
human CD34+ cells [1] = assay type: cell-based; details: for HDR efficiency (GFP+ cells): molecules added one day before viral transduction, FIG. 2B; for editing efficiency by molecular analyses on genomic DNA: human HSPC, FIG. 8B
Experimental: CD34+ cells were either freshly purified from human CB after obtaining informed consent and upon approval by the Ospedale San Raffaele Bioethical Committee, or purchased frozen from Lonza. CD34+ cells were edited according to a previously optimized protocol (Schiroli et al. 2017 supra).
Briefly, 5×10^5 CD34+ cells/ml were stimulated in serum-free StemSpan medium (StemCell Technologies) supplemented with penicillin, streptomycin, glutamine, 1 μM SR-1 (Biovision), […] (STEMCell Technologies), 10 μM PGE2 added only at the beginning of the culture (Cayman), and human early-acting cytokines (SCF 100 ng/ml, Flt3-L 100 ng/ml, TPO 20 ng/ml, and IL-6 20 ng/ml; all purchased from Peprotech). After 3 days of prestimulation, cells were washed with PBS and electroporated using P3 Primary Cell 4D-Nucleofector X Kit and program EO-100 (Lonza). Cells were electroporated with 2.5-1.25 μM of RNPs.
Transduction with AAV6 was performed at a dose of 1-2×10^4 vg/cell 15′ after electroporation. GSE56 mRNA was utilized were indicated at a dose of 150 μg/ml. Gene editing efficiency was measured from cultured cells in vitro 3 days after electroporation by flow cytometry measuring the percentage of cells expressing the GFP marker or by digital droplet PCR analysis designing primers and probe on the junction between the vector sequence and the targeted locus and on control sequences utilized as normalizer as previously described (Schiroli et al. 2017 supra).
For HDR ddPCR, primers and probes were designed on the junction between the vector sequence and the targeted locus and on control sequences used for normalization (human TTC5 genes). Thermal conditions for annealing and extension were adjusted for each specific application as follows: AAVS1/Intron 1 IL2RG HDR 3′ integration junction ddPCR: 55° C. for 30 sec, 72° C. for 2 min. Primers and probes for PCR and ddPCR amplifications are shown below.
CD34^+ cells were purchased frozen from Lonza. CD34^+ cells were edited according to a previously optimised protocol (Schiroli, G. et al (2017) Sci Transl Med 9). Briefly, 1-5×10^5 CD34^+ cells/ml were stimulated in serum-free StemSpan medium (StemCell Technologies) supplemented with penicillin, streptomycin, glutamine, 1 μM of the arylhydrocarbon receptor antagonist SR-1 (Biovision), […] of the pyrimidoindole-derivative UM171 (STEMCell Technologies), 10 μM of the 15-hydroxy PGDH competitive inhibitor dmPGE-2 added only at the beginning of the culture (Cayman), and human early-acting cytokines (SCF 100 ng/ml, Flt3-L 100 ng/ml, TPO 20 ng/ml, and IL-6 20 ng/ml; all purchased from Peprotech). After 3 days of pre-stimulation, cells were washed with PBS and electroporated using P3 Primary Cell 4D-Nucleofector X Kit and program EO-100 (Lonza). Cells were electroporated with 1-1.2 μM of RNPs. Where specified, electroporation mixture was supplemented with Ad5-E4orf1, Ad5-E4orf6/7 and GSE56/Ad5-E4orf6/7 mRNAs, which were respectively utilized at doses of 120, 80 and 200 μg/ml, or Ad5-E1B55K and Ad5-E4orf6 mRNAs were used at 120 and 80 μg/ml. All other adenoviral protein variants were used at standard dose 120 μg/ml. Transduction with AAV-6 was performed 15 min post-electroporation at dose of 1-5×10^4 vg/cell. Where specified, CD34+ cells were stimulated for shorter time in culture (0, 24 or 48 hours) and edited as described above. Gene editing efficiency was measured from cultured cells in vitro at 4 days post-editing by flow cytometry measuring the percentage of cells expressing the GFP reporter gene or by digital droplet PCR analysis designing primers and probe on the junction between the vector sequence and the targeted locus and on control sequence utilised as normaliser as previously described (Schiroli, G. et al (2017) Sci Transl Med 9) and Schiroli et al., Cell Stem Cell 2019. […]

ATR [2] = target: ATR (Homo sapiens, UniProt Q13535); details: cited from earlier work
Sequence of ATR (Homo sapiens, UniProt Q13535) (Q13535 whole entry): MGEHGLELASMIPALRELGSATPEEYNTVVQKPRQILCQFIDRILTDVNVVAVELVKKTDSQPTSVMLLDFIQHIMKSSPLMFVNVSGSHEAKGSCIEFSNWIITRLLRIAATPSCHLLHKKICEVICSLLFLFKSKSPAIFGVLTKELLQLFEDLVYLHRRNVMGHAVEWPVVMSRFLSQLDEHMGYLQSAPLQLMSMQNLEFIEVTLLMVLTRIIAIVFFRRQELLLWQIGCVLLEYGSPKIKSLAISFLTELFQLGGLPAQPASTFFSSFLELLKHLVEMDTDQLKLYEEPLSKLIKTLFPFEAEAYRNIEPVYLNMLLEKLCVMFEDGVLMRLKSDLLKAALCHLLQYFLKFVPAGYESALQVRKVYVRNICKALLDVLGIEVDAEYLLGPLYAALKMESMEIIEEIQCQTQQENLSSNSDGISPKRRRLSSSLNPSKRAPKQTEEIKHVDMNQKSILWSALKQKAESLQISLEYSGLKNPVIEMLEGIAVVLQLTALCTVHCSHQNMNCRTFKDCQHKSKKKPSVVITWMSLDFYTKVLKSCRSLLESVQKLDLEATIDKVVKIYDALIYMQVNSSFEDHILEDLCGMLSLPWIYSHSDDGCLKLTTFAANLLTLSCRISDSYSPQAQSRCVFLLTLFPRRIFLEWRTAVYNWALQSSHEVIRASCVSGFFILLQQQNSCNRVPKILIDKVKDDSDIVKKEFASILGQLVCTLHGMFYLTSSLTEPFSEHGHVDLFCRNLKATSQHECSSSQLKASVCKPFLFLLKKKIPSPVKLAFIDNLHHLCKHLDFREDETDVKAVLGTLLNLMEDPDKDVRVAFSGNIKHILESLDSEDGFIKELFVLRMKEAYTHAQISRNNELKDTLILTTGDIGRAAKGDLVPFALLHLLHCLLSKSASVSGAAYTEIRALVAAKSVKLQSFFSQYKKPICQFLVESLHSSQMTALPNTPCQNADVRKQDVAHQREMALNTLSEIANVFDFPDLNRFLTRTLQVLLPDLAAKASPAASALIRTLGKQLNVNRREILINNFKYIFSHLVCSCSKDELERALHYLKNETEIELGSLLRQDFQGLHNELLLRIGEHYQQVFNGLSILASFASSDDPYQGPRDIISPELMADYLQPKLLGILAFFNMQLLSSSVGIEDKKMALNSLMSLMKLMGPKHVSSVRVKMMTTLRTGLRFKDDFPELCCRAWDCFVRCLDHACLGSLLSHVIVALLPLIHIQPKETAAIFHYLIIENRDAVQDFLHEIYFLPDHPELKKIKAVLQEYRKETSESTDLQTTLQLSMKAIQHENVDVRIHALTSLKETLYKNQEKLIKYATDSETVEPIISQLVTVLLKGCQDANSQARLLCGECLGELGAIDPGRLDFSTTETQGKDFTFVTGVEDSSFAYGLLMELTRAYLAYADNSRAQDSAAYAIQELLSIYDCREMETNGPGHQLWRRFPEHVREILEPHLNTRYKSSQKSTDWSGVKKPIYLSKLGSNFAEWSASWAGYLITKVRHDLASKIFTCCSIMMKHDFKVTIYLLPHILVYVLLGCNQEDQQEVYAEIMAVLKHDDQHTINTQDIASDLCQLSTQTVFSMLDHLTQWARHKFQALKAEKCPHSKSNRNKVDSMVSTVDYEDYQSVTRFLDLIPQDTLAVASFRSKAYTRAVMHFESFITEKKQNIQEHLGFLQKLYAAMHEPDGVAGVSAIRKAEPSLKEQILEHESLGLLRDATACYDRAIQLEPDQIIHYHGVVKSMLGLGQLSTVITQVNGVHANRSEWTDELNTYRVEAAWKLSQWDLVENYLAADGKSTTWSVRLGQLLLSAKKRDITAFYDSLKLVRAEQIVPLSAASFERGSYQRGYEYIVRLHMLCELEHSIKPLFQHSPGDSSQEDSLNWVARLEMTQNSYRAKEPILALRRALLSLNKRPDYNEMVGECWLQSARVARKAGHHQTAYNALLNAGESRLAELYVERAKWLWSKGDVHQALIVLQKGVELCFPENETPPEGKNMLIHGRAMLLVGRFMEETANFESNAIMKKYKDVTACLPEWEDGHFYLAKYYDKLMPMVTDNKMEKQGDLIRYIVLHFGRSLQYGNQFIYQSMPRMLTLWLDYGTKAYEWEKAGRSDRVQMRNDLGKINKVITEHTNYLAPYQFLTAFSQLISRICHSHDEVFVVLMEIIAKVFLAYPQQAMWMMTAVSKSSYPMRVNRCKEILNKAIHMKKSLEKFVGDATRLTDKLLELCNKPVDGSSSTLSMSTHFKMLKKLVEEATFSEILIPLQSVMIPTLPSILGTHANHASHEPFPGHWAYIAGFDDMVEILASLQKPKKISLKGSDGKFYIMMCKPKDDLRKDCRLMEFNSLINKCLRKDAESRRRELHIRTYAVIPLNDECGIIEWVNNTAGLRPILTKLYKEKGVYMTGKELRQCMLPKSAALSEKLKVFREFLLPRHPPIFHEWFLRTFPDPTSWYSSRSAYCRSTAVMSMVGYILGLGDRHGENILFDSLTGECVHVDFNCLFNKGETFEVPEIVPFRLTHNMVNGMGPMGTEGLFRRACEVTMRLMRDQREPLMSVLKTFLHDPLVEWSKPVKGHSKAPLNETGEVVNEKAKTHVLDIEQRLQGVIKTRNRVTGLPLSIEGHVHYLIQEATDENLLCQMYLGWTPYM
Sequence of ATR (Homo sapiens, UniProt Q13535) (Q8WXE1 whole entry partner): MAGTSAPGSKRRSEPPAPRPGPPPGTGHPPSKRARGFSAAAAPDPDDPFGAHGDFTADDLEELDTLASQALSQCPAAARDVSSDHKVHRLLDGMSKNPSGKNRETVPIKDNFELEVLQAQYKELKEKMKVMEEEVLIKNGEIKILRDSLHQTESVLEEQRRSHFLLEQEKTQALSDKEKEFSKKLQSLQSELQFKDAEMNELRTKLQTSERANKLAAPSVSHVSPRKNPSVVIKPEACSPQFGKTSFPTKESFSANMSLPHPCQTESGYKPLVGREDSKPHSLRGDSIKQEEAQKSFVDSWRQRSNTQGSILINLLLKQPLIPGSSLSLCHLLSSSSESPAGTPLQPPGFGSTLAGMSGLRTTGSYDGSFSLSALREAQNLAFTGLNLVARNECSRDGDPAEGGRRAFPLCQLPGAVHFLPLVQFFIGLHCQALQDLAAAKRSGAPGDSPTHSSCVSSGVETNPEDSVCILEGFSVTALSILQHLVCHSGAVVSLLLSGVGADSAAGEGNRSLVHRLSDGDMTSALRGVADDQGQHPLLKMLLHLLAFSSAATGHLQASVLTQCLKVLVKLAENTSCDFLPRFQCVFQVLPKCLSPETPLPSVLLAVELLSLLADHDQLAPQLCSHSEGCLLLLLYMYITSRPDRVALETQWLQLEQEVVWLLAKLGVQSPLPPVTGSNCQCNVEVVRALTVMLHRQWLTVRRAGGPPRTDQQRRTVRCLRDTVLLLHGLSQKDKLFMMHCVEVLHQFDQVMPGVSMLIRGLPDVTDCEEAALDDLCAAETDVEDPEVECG

human CD34+ cells [3] = assay: Cell growth curve of edited CD34+ cells; assay type: cell-based
ATM kinase = ATM kinase (Homo sapiens, UniProt Q13315); details: cited from earlier work
human CD34+ cells [4] = assay: NHEJ by mismatch-sensitive endonuclease (T7 Endonuclease I) assay in edited CD34+ cells; assay type: cell-based; details: bulk cells, 3 days after gene editing; FIG. 2C
Experimental: The percentage of insertions and deletion (indels) introduced by the Non Homologous End Joining (NHEJ) repair pathway on the nucleases target site was measured by a mismatch-sensitive endonuclease assay (PCR-based amplification of the targeted locus followed by digestion with T7 Endonuclease I; digested DNA fragments were resolved and quantified by capillary electrophoresis on LabChip GX Touch HT, Perkin Elmer) The levels of NHEJ-induced mutations were used as surrogate readout for scoring nucleases activity.
For molecular analyses, genomic DNA was isolated with DNeasy Blood & Tissue Kit or QIAamp DNA Micro Kit (QIAGEN) according to the number of cells available. Nuclease activity (IL2RG intron 1, AAVS1) was measured by mismatch-sensitive endonuclease assay by PCR-based amplification of the targeted locus followed by digestion with T7 Endonuclease I (NEB) according to the manufacturer's instructions. Digested DNA fragments were resolved and quantified by capillary electrophoresis on LabChip GX Touch HT (Perkin Elmer) according to the manufacturer's instructions.
For molecular analyses, genomic DNA was isolated with DNeasy Blood & Tissue Kit or QIAamp DNA Micro Kit (QIAGEN) according to the number of cells available. […] Digested DNA fragments were resolved and quantified by capillary electrophoresis on LabChip GX Touch HT (Perkin Elmer) according to the manufacturer's instructions.

ATR [5] = target: T1, ATR (Mus musculus, UniProt Q9JKK8); details: in 3T3TopBP1-ER cells; cited from earlier work
T1 construct: endogenous in cells; host or cells: 3T3TopBP1-ER cells

[6] = DMSO and ethanol; cited from earlier work
[7] = test system: human CD34+ cells transplanted into NSG mice; assay: Xenotransplantation of edited human CD34+ cells in NSG mice; assay type: in vivo; details: AAVS1; T0eq=3×10^5/mouse; FIG. 17B
Experimental: For transplantation, 3×10^5 CD34+ cells treated for editing at day 5 of culture were injected intravenously into NSG mice after sub-lethal irradiation (150-180 cGy). Sample size was determined by the total number of available treated cells. Mice were attributed to each experimental group randomly. Human CD45+ cell engraftment and the presence of gene-edited cells were monitored by serial collection of blood from the mouse tail and, at the end of the experiment (>20 weeks after transplantation), BM and spleen were harvested and analyzed.
NOD-SCID-IL2Rg^−/− (NSG) mice were purchased from The Jackson Laboratory and were maintained in specific-pathogen-free (SPF) conditions. The procedures involving animals were designed and performed with the approval of the Animal Care and Use Committee of the San Raffaele Hospital (IACUC #749) and communicated to the Ministry of Health and local authorities according to Italian law. For transplantation, 1.5-3×10^5 (for primary) or 2×10^6 (for secondary) CD34^+ treated cells at 24 hours post-editing protocol were injected intravenously into NSG mice after sub-lethal irradiation (180 cGy). Sample size was determined by the total number of available treated cells. Mice were attributed to each experimental group randomly. Human CD45^+ cell engraftment and the percentage of edited GFP^+ cells were monitored by serial collection of blood from the mouse tail over the weeks post-transplantation and at the end of the experiment (18-20 weeks post-transplantation) both spleen and bone-marrow were harvested and analysed.

human CD34+ cells [8] = assay: CFU-C / colony forming cell assay of edited CD34+ cells; assay type: cell-based
human CD34+ cells [9] = assay: Cell cycle analysis by Hoechst 33342 staining; assay type: cell-based; details: bulk treated cells; 12-24 hours; FIG. 14H
Experimental: Cell cycle was analysed by flow cytometry (CytoFLEX LX; Beckman Coulter) at 12-24 hours post-editing by collecting 0.5-1×10^5 total HSPCs in culture. Cells were washed with PBS+2% FBS and stained by using 10 μg/ml Hoechst 33342 (Sigma-Aldrich) in PBS+2% FBS for 0.5-1 hour in final volume equal to 200 μl.

## N=c1sc2c(n1CC(=O)c1ccc([N+](=O)[O-])cc1)CCCC2 [pifithrin-α p-nitro, reference compound]
Human CD34+ cells [1]; 3 days after gene editing
  HDR efficiency (GFP+ cells): increase in HDR efficiency

## COc1cc2ncnc(-n3nc(-c4ccccn4)nc3N)c2cc1OC [CP-466722]
ATR [2]
  effect on ATR: does not affect ATR

## Cc1ccc(C(=O)Cn2c3c(sc2=N)CCCC3)cc1 [pifithrin-α, reference compound]
Human CD34+ cells [1]; 3 days after gene editing
  HDR efficiency (GFP+ cells): increase in HDR efficiency

## E1B55K and E4orf6: combination of adenoviral proteins E1B55K (SEQ ID No. 15) and E4orf6 (SEQ ID No. 13), delivered as mRNAs
Human CD34+ cells [3]; FIG. 8D
  growth curve of treated cells: lower compared to the standard
Human CD34+ cells [1]; FIG. 15A
  GFP expression from the AAV6 donor: increased significantly the GFP expression
Human CD34+ cells [1]; FIG. 15B
  HDR-mediated integrations at the targeted AAVS1 locus compared to standard: reducing HDR-mediated integrations
Human CD34+ cells [1]
  editing efficiency by molecular analyses on genomic DNA: not effective in increasing the editing efficiency
Human CD34+ cells [1]; mainly most primitive HSPC compartment, AAVS1, FIG. 8A
  transient increase in the fraction of GFP+ cells: up to 1.45 fold

## O=C(NC(NC(=S)Nc1ccc(F)c([N+](=O)[O-])c1)C(Cl)(Cl)Cl)C(c1ccccc1)c1ccccc1 (stereo not shown) [CGK 733]
ATM kinase
  IC50: ~200 nM
ATR [2]
  IC50: ~200 nM

## Cc1ccc(-c2cn3c4c(sc3n2)CCCC4)cc1 [pifithrin-α cyclic, reference compound]
Human CD34+ cells [4]
  increase in DNA repair by NHEJ: two-fold
Human CD34+ cells [1]
  cellular toxicity: lowest cellular toxicity
Human CD34+ cells [1]; 3 days after gene editing, FIG. 2C
  increase in gene editing in the most primitive CD34+ CD133+ CD90+ cell compartment: two-fold
Human CD34+ cells [1]; 3 days after gene editing
  HDR efficiency (GFP+ cells): increase in HDR efficiency

## Cn1c(=O)n(-c2ccc(C(C)(C)C#N)cc2)c2c3cc(-c4cnc5ccccc5c4)ccc3ncc21 [BEZ235]
ATR [5]
  IC50: ~21 nM

## O=c1cc(-c2cccc3c2Sc2ccccc2S3)oc(N2CCOCC2)c1 [KU-55933]
[6]
  solubility: soluble in DMSO and ethanol

B1: E4orf1: adenoviral protein from adenovirus serotype 5 E4 gene (SEQ ID No. 1), delivered as mRNA (protein)
chain: MAAAVEALYVVLEREGAILPRQEGFSGVYVFFSPINFVIPPMGAVMLSLRLRVCIPPGYFGRFLALTDVNQPDVFTESYIMTPDMTEELSVVLFNHGDQFFYGHAGMAVVRLMLIRVVFPVVRQASNV
modifications: delivered as mRNA; example amino acid sequence of Ad5-E4orf1
[7]
  human CD45+ cell engraftment in bloodstream, between groups: did not show any statistical significance
Human CD34+ cells [3]; FIG. 7D
  growth curve of treated cells compared to standard and E4orf6/7 alone: 4 fold
Human CD34+ cells [3]; days post-editing, FIG. 14B
  cell growth compared to standard RNP+AAV6: about 2 fold
Human CD34+ cells [8]; FIG. 7C
  increase in number of myeloid and erythroid colony forming units (CFU) compared to standard: 3 fold
Human CD34+ cells [8]; FIG. 14G
  erythroid and myeloid clonogenic output compared to standard protocol: improved
Human CD34+ cells [8]; among E4orf1 serotype variants, FIG. 21D
  number of colonies: highest number of colonies
Human CD34+ cells [9]
  cell cycle states (G1 to S/G2/M): lower and not significant
Human CD34+ cells [1]; AAVS1, different mRNA doses, FIG. 6D
  targeting efficiency versus mRNA dose: dose dependent increase in the targeting efficiency
Human CD34+ cells [1]; AAVS1, most primitive compartment (CD34+133+90+ / CD90+), 96 hours, FIG. 14C
  increase of GFP expression compared to standard RNP+AAV6: up to 1.3 fold
Human CD34+ cells [1]; best performing mRNA dose, AAVS1, FIG. 6D
  mean increase in the percentage of targeted primitive HSPC: 1.5 fold
Human CD34+ cells [1]
  editing efficiency by molecular analyses on genomic DNA: reproducibly able to boost editing
Human CD34+ cells [1]; side-by-side, AAVS1, 4 days, FIG. 7A
  mean increase in the fraction of GFP+ cells compared to the standard: 1.2 fold
